From patent US10398720B2, “Compound of the avermectin family or of the milbemycin family for the treatment and/or prevention of atopic dermatitis” (GALDERMA SA, priority 2013, dated 2019)

System: Der f-induced AD mouse model
Test: Dermatophagoides farinae (Der f)-induced atopic dermatitis (AD)-like mouse model, topical route
Assay type: in vivo, Balb/c mice
Settings: for cytokine concentration / production (IL-10, IL-13, IL-17, IL-4, IL-5, IFNg; FIG. 5): 0.1% ivermectin; for inflammatory response induced by Der f application: topical daily day 19 to day 36, solutions in acetone, ivermectin 0.003-0.1%; for ear edema (ear thickness, FIG. 1): topical daily day 19 to day 36
Experimental: 1.1. […] Der f has been purchased from Greer Laboratories and a Der f solution has been prepared at 12.5 mg/ml in 70% DMSO in MilliQ water. […] Balb/c mice strain has been used for the study. These animals have been obtained from controlled breeding and were specific pathogen free. The animals have been provided by Janvier SAS, France. AD-like lesions have been induced once a week by topical application of 20 μl of Der f solution on the right ear for 5 weeks at […], day 29 and day 36. Mice have been daily treated from day 19 to day 36 with the different solutions administrated by the topical route. Measurement of ear thickness have been monitored before and 24 hours after each allergen application. After day 19, ears have been daily measured before compound application. Blood samples have been collected into appropriate vials under isoflurane anaesthesia for further analysis (IgE). Mice have been then immediately euthanized. After mouse euthanasia, the right ear has been collected and has been washed in ethanol 70% and has been rinsed in PBS. Three skin biopsies have then been collected for cytokines profiles, eosinophil peroxidase (EPO) quantification and histological slides in order to quantify the mastocytes and in order to measure the epidermis thickness.

[1] = right ear skin biopsy, 0.05% triamcinolone acetonide, 0.1% tacrolimus
[2] = 0.05% triamcinolone acetonide, 0.1% tacrolimus
[3] = 0.05% triamcinolone acetonide, 0.1% tacrolimus, ivermectin 0.003, 0.01, 0.03 and 0.1%
[4] = histological slides, 0.05% triamcinolone acetonide, ivermectin 0.003, 0.01, 0.03 and 0.1%

Compound	cytokine concentration / production (IL-10, IL-13, IL-17, IL-4, IL-5, IFNg; FIG. 5) [1]	interleukin IL-17 production (FIG. 5) (right ear skin biopsy, 0.1% tacrolimus)	inflammatory response induced by Der f application [2]	ear edema (ear thickness, FIG. 1) [3]	IgE secretion (total seric IgE, FIG. 4) (blood sample, 0.05% triamcinolone acetonide, ivermectin 0.003, 0.01, 0.03 and 0.1%)	epidermal thickness (FIG. 2) [4]	mastocyte count (within the dermis, FIG. 6) [4]	dose response of the anti-inflammatory activity (ivermectin 0.003 to 0.1% topical)	anti-inflammatory response, higher concentrations (ivermectin 0.01, 0.03 and 0.1% topical, compared with 0.003%)	inflammatory response, compared with positive controls (ivermectin at 0.003% topical vs triamcinolone acetonide at 0.05% and tacrolimus at 0.1%)	EPO (eosinophil peroxidase, FIG. 3) (right ear skin biopsy, 0.05% triamcinolone acetonide, ivermectin 0.003, 0.01 and 0.03%)
C=CC[C@@H]1/C=C(\C)C[C@H](C)C[C@H](OC)[C@H]2O[C@@](O)(C(=O)C(=O)N3CCCC[C@H]3C(=O)O[C@H](/C(C)=C/[C@@H]3CC[C@@H](O)[C@H](OC)C3)[C@H](C)[C@@H](O)CC1=O)[C@H](C)C[C@@H]2OC [tacrolimus]	totally reduces	totally reduces	completely inhibit	totally reduces	–	–	–	–	–	–	–
Ivermectin	significantly decreases	–	able to reduce	significantly decreases	significantly decreases	lessens	lessens	inverse dose response	less potent than the weakest concentration (0.003%)	to the same extent as triamcinolone acetonide at 0.05% and as tacrolimus at 0.1%	significantly decreases
